Test results published in US20240360113A1, “AMINOARYL-INTEGRIN AGONISTS COMPOUNDS” (Texas Heart Institute, priority 2021, published 2024).

Experiments:
α4β1/VCAM-1 = biological target: T1, α4β1/VCAM-1 (Homo sapiens, UniProt P05556+P13612); test: Static cell adhesion assay, Jurkat cells on VCAM-1 (VLA-4 agonist activity); type: cell-based; conditions: EC50 relative to THI0349 (average 11 uM) run on the same plate; Jurkat cells, 50% FBS
T1 construct: The Jurkat (VCAM-1 assays) and HSB (ICAM-1 assays) cell lines were obtained from American Type Culture Collection; endogenous in cells; host or cells: Jurkat (ATCC)
Procedure, shortened: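 Calcein-labelled Jurkat cells (2×10^5/well) were added to wells coated with a sub-optimal level of human VCAM-1 (0.5 μg/mL) in PBS, 1 mM MgCl2, 50% FBS with compound in 1% DMSO. After 30 min at 37° C. and washing, adherent-cell fluorescence was read. EC50 was the concentration giving 50% of maximal response.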

αLβ2/ICAM-1 = biological target: T2, αLβ2/ICAM-1 (Homo sapiens, UniProt P05107+P20701); test: Static cell adhesion assay, HSB cells on ICAM-1 (LFA-1; LAD); type: cell-based; conditions: RFU of compound / RFU of THI0349, both at the same concentration
T2 construct: The Jurkat (VCAM-1 assays) and HSB (ICAM-1 assays) cell lines were obtained from American Type Culture Collection; endogenous in cells; host or cells: HSB (ATCC)
Procedure, shortened: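 HSB cells were labeled with calcein-AM for 30 minutes, washed, resuspended in binding buffer (PBS with 2 mM MgCl2, 5 mM EGTA, 50% FBS) and plated at 2×10^5 cells/well in triplicate onto 96-well plates coated overnight at 4° C with ICAM-1 (5 μg/mL in 50 μL TBS) and blocked with 2% BSA. Compounds were tested in 1% DMSO. After 30 minutes at 37° C and three washes, adherent cells were lysed and fluorescence was read; results are compound RFU divided by THI0349 RFU.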

T2 sequence (P20701 26-1170): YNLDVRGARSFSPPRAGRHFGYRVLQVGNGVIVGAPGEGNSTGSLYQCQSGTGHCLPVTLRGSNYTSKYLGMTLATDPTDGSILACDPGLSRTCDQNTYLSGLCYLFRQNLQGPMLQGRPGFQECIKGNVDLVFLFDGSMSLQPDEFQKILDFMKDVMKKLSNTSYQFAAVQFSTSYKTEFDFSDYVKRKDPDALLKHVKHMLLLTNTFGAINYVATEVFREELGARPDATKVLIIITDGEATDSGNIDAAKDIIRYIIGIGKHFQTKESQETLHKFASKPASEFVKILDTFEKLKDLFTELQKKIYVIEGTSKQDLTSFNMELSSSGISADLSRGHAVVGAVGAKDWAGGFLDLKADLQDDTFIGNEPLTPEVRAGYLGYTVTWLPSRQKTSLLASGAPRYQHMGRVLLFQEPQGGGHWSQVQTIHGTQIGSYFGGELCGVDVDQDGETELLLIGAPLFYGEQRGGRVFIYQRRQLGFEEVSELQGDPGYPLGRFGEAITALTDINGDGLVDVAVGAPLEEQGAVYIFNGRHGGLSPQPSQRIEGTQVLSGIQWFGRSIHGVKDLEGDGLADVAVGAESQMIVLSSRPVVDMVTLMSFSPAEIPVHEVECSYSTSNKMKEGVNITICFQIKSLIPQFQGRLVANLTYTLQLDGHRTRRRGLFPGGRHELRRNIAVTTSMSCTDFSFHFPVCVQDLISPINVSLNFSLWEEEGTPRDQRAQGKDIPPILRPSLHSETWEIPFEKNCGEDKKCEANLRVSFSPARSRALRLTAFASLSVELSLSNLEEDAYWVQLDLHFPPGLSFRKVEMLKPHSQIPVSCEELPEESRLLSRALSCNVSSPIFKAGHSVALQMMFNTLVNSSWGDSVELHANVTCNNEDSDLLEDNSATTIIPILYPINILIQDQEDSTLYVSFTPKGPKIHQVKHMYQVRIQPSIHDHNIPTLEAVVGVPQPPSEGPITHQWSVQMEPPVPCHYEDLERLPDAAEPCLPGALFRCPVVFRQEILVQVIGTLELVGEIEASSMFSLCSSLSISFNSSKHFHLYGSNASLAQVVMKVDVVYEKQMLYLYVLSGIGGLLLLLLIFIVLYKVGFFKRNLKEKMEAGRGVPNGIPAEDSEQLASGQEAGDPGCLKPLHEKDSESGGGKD
T2 sequence (P05107 23-769): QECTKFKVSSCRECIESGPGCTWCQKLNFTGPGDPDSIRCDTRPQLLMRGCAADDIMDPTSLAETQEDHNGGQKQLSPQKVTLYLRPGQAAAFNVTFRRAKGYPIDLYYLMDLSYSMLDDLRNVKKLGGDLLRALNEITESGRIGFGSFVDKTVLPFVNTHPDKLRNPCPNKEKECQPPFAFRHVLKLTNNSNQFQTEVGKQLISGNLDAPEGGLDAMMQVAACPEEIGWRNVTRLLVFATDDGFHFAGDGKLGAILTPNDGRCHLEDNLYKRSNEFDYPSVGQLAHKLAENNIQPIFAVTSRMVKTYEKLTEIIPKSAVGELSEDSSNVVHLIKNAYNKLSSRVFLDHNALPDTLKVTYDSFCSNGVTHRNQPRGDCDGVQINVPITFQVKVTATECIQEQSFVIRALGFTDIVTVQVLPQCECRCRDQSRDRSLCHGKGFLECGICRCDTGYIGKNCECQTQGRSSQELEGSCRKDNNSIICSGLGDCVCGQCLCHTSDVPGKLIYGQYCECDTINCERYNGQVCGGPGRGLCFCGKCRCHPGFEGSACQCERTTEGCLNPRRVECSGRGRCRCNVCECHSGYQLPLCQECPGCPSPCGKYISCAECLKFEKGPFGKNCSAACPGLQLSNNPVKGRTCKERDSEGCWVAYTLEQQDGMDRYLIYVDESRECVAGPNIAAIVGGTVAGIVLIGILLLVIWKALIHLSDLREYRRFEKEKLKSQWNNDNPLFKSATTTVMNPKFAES
T1 sequence (P13612 34-1032): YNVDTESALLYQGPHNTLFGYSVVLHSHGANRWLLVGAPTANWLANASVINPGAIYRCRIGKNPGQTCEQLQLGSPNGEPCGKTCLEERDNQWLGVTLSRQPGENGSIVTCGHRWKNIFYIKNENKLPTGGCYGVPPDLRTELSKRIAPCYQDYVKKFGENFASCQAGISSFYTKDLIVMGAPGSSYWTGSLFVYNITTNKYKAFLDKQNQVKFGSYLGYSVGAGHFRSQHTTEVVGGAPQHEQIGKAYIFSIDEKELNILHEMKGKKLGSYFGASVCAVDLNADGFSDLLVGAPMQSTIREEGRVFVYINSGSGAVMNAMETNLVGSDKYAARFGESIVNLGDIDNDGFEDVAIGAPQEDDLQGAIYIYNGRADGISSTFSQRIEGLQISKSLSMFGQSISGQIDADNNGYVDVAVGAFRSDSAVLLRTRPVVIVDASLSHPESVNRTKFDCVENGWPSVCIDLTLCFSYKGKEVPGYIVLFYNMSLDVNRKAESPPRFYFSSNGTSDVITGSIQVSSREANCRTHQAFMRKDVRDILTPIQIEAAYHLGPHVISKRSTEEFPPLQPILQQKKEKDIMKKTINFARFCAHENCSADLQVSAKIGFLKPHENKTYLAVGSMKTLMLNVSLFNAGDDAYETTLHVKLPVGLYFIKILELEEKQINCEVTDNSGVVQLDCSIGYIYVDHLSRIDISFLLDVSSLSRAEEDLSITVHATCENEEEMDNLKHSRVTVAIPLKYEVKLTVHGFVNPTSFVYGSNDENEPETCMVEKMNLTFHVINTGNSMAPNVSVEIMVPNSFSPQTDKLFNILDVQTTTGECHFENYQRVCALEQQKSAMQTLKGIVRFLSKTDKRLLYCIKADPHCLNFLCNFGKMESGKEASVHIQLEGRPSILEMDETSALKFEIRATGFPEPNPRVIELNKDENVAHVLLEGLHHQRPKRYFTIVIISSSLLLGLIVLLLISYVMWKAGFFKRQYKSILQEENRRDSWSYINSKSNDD
T1 sequence (P05556 21-798): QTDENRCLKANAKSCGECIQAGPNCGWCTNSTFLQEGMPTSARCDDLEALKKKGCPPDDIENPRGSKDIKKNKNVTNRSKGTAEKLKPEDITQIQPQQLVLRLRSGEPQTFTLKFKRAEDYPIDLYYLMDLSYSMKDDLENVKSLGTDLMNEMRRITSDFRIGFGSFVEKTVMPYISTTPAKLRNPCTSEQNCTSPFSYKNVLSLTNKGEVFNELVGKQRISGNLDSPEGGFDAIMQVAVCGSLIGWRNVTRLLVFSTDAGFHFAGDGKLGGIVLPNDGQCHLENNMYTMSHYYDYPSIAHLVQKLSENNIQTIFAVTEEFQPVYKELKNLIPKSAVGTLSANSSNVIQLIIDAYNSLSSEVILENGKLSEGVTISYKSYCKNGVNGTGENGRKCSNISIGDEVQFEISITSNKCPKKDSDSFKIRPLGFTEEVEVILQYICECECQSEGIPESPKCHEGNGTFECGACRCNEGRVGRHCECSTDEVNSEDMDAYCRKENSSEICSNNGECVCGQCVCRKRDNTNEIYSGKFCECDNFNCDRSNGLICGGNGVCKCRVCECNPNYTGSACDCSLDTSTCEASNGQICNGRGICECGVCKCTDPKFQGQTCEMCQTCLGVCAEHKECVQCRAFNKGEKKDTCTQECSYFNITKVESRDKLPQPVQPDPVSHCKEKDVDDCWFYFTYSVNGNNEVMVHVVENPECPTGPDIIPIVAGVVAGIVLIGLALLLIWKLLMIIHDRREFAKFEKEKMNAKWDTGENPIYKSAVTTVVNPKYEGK

COc1cccc(CN(Cc2cccc(OC)c2)c2nc(COCCOCc3ccccc3C)cs2)c1 [Compound 60, N,N-bis(3-methoxybenzyl)-4-((2-((2-methylbenzyl)oxy)ethoxy)methyl)thiazol-2-amine]
Group against VCAM (α4β1/VCAM-1): I (Group I maintains at least the same potency or better up to more than twice that of the EC50 of THI0349 ran on the same plate) | LAD Raw Fluorescence Units against LFA-1; Dose 3 µM; Ratio of raw counts Compound/THI0349 (αLβ2/ICAM-1): 0.92

COc1cccc(CN(Cc2ccc3ncccc3c2)c2nc(CN3CCOCC3)cs2)c1 [Compound 76, N-(3-methoxybenzyl)-4-(morpholinomethyl)-N-(quinolin-6-ylmethyl)thiazol-2-amine]
Group against VCAM (α4β1/VCAM-1): II (Group II is more than twice that of THI0349 but less than five times THI0349's EC50) | LAD Raw Fluorescence Units against LFA-1; Dose 3 µM; Ratio of raw counts Compound/THI0349 (αLβ2/ICAM-1): 0.31
